# Source: patent publication US8952024B2, “Herbicidal pyrimidone derivatives” (E I du Pont de Nemours and Company, priority 2009, dated 2015)
# Read-outs that look alike come from different tables or passages of the source.
# What was measured:
# Type in all cases: in vivo
# [1] = test system: barnyardgrass (Echinochloa crus-galli); assay: Test A pre-/postemergence plant response; conditions: Echinochloa crus-galli, 240 h, read-out: Plant response rating, Barnyardgrass; for pest or weed control at 125 g/ha: 125 g ai/ha; for pest or weed control at 500 g/ha: 500 g ai/ha, approx. ten days
# Method in brief: (§1)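 Visually rated 0–100 injury (100 = complete control) versus untreated plants, ~10 days in greenhouse. Application pre- (soil spray, loam/sand) and postemergence (2–10 cm, 1–2 leaf stage), same timepoint.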
# corn (Zea mays) = assay: Test A pre-/postemergence plant response; conditions: Zea mays, 240 h; for Corn plant response rating (crop injury, 0 = no effect, 100 = complete kill) at 125 g/ha: 125 g ai/ha; for Corn plant response rating (crop injury, 0 = no effect, 100 = complete kill) at 500 g/ha: 500 g ai/ha, approx. ten days
# Method in brief: as §1
# [2] = test system: giant foxtail (Setaria faberii); assay: Test A pre-/postemergence plant response; conditions: Setaria faberi, 240 h, read-out: Plant response rating, Foxtail, Giant; for pest or weed control at 125 g/ha: 125 g ai/ha; for pest or weed control at 500 g/ha: 500 g ai/ha, approx. ten days
# Method in brief: as §1
# [3] = test system: large crabgrass (Digitaria sanguinalis); assay: Test A pre-/postemergence plant response; conditions: Digitaria sanguinalis, 240 h, read-out: Plant response rating, Crabgrass, Large; for pest or weed control at 125 g/ha: 125 g ai/ha; for pest or weed control at 500 g/ha: 500 g ai/ha, approx. ten days
# Method in brief: as §1
# [4] = test system: morningglory (Ipomoea spp.); assay: Test A pre-/postemergence plant response; conditions: Ipomoea, 240 h, read-out: Plant response rating, Morningglory; for pest or weed control at 125 g/ha: 125 g ai/ha; for pest or weed control at 500 g/ha: 500 g ai/ha, approx. ten days
# Method in brief: as §1
# [5] = test system: pigweed (Amaranthus retroflexus); assay: Test A pre-/postemergence plant response; conditions: Amaranthus retroflexus, 240 h, read-out: Plant response rating, Pigweed; for pest or weed control at 125 g/ha: 125 g ai/ha; for pest or weed control at 500 g/ha: 500 g ai/ha, approx. ten days
# Method in brief: as §1
# [6] = test system: velvetleaf (Abutilon theophrasti); assay: Test A pre-/postemergence plant response; conditions: Abutilon theophrasti, 240 h, read-out: Plant response rating, Velvetleaf; for pest or weed control at 125 g/ha: 125 g ai/ha; for pest or weed control at 500 g/ha: 500 g ai/ha, approx. ten days
# Method in brief: as §1
# [7] = test system: wheat (Triticum aestivum); assay: Test A pre-/postemergence plant response; conditions: Triticum aestivum, 240 h, read-out: Plant response rating, Wheat; for plant injury at 125 g/ha: 125 g ai/ha; for plant injury at 500 g/ha: 500 g ai/ha, approx. ten days
# Method in brief: as §1
# [8] = test system: winter barley (Hordeum vulgare); assay: Test B postemergence plant response
# Method in brief: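 Plants at the 1- to 4-leaf stage (2 to 18 cm tall), grown in pots of peat moss/vermiculite medium with wetting agent and starter nutrients, received postemergence applications of test chemicals. After 13 to 15 days in a greenhouse, injury was rated visually against untreated controls on a 0 (no effect) to 100 (complete control) scale.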
# [9] = test system: barnyardgrass (Echinochloa crus-galli); assay: Test B flooded paddy test
# Method in brief: (§2)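 Visual scores run from 0 (no effect) to 100 (complete control), assigned by comparison with controls 13 to 15 days after treatment. Test compounds went straight into water standing 3 cm above the soil, around plants at the 2-leaf stage kept in a greenhouse.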
# [10] = test system: ducksalad (Heteranthera limosa); assay: Test B flooded paddy test
# Method in brief: as §2
# rice (Oryza sativa) = assay: Test B flooded paddy test
# Method in brief: as §2
# [11] = test system: umbrella sedge (Cyperus difformis); assay: Test B flooded paddy test
# Method in brief: as §2
# [12] = post-emergence, Postemergence, 0 to 100 scale where 0 is no effect and 100 is complete control
# [13] = post-emergence, Postemergence, 0 to 100 scale, 0 = no effect, 100 = complete control
# [14] = pre-emergence, Preemergence, 0 to 100 scale, 0 = no effect, 100 = complete control
# [15] = pre-emergence, Preemergence, visual injury, 0 to 100 scale (0 no effect, 100 complete control)
# [16] = Flood, 31 g ai/ha, scale 0 to 100 (0 no effect, 100 complete control)
compound,measurement,setting,value
"COCCCn1c(-c2ccccc2)ncc(C(=O)C2=C(O)CCCC2=O)c1=O [Compound 81, 5-[(2-hydroxy-6-oxo-cyclohexen-1-yl)carbonyl]-3-(3-methoxypropyl)-2-phenyl-4(3H)-pyrimidinone]",pest or weed control at 125 g/ha,[1]; [12],100%
same,pest or weed control at 500 g/ha,[1]; [13],100%
same,pest or weed control at 125 g/ha,[1]; [14],50%
same,pest or weed control at 500 g/ha,[1]; [15],90%
same,"Corn plant response rating (crop injury, 0 = no effect, 100 = complete kill) at 125 g/ha",corn (Zea mays); [12],10%
same,"Corn plant response rating (crop injury, 0 = no effect, 100 = complete kill) at 500 g/ha",corn (Zea mays); [13],70%
same,"Corn plant response rating (crop injury, 0 = no effect, 100 = complete kill) at 125 g/ha",corn (Zea mays); [14],0%
same,"Corn plant response rating (crop injury, 0 = no effect, 100 = complete kill) at 500 g/ha",corn (Zea mays); [15],0%
same,pest or weed control at 125 g/ha,[2]; [12],80%
same,pest or weed control at 500 g/ha,[2]; [13],90%
same,pest or weed control at 125 g/ha,[2]; [14],30%
same,pest or weed control at 500 g/ha,[2]; [15],80%
same,pest or weed control at 125 g/ha,[3]; [12],90%
same,pest or weed control at 500 g/ha,[3]; [13],90%
same,pest or weed control at 125 g/ha,[3]; [14],90%
same,pest or weed control at 500 g/ha,[3]; [15],100%
same,pest or weed control at 125 g/ha,[4]; [12],90%
same,pest or weed control at 500 g/ha,[4]; [13],100%
same,pest or weed control at 125 g/ha,[4]; [14],0%
same,pest or weed control at 500 g/ha,[4]; [15],70%
same,pest or weed control at 125 g/ha,[5]; [12],100%
same,pest or weed control at 500 g/ha,[5]; [13],100%
same,pest or weed control at 125 g/ha,[5]; [14],100%
same,pest or weed control at 500 g/ha,[5]; [15],100%
same,pest or weed control at 125 g/ha,[6]; [12],100%
same,pest or weed control at 500 g/ha,[6]; [13],100%
same,pest or weed control at 125 g/ha,[6]; [14],100%
same,pest or weed control at 500 g/ha,[6]; [15],100%
same,plant injury at 125 g/ha,[7]; [12],0%
same,plant injury at 500 g/ha,[7]; [13],30%
same,plant injury at 125 g/ha,[7]; [14],0%
same,plant injury at 500 g/ha,[7]; [15],20%
same,Barley plant response rating (0 to 100 scale),"[8]; 62 g ai/ha, postemergence, 0 is no effect, 100 is complete control, 13 to 15 days",0
same,plant injury at 31 g/ha,"[8]; Hordeum vulgare, post-emergence, 31 g ai/ha, postemergence, scale 0 to 100, 0 is no effect, 100 is complete control, read-out: Plant response rating, Barley",0%
same,plant injury at 125 g/ha,"[8]; Hordeum vulgare, post-emergence, Postemergence, 125 g ai/ha, visual rating after 13 to 15 days, scale 0 (no effect) to 100 (complete control)",0%
same,plant injury at 250 g/ha,"[8]; Hordeum vulgare, post-emergence, Postemergence, 250 g ai/ha, scale 0 to 100 (0 no effect, 100 complete control), read-out: Plant response rating, Barley",5%
same,pest or weed control at 250 g/ha,"[9]; Echinochloa crus-galli, 360 h, 250 g ai/ha, flooded paddy test, visual rating on 0 to 100 scale (0 no effect, 100 complete control) after 13 to 15 days, read-out: Plant response rating, Flood, Barnyardgrass",60%
same,pest or weed control at 62 g/ha,"[9]; Echinochloa crus-galli, 360 h, Flood (flooded paddy test), 62 g ai/ha, scale of 0 to 100 where 0 is no effect and 100 is complete control, 13 to 15 days, read-out: Plant response rating, Barnyardgrass",0%
same,pest or weed control at 125 g/ha,"[9]; Echinochloa crus-galli, 360 h, Flood (flooded paddy test), 125 g ai/ha, scale 0 to 100, 0 is no effect, 100 is complete control, 13 to 15 days, read-out: Plant response rating, Barnyardgrass",40%
same,Barnyardgrass plant response rating,[9]; [16],0
same,Ducksalad plant response rating,[10]; [16],0
same,pest or weed control at 250 g/ha,"[10]; Heteranthera limosa, 360 h, 250 g ai/ha, flooded paddy test, visual rating on 0 to 100 scale (0 no effect, 100 complete control) after 13 to 15 days, read-out: Plant response rating, Flood, Ducksalad",40%
same,pest or weed control at 62 g/ha,"[10]; Heteranthera limosa, 360 h, Flood (flooded paddy test), 62 g ai/ha, scale of 0 to 100 where 0 is no effect and 100 is complete control, 13 to 15 days, read-out: Plant response rating, Ducksalad",0%
same,pest or weed control at 125 g/ha,"[10]; Heteranthera limosa, 360 h, Flood (flooded paddy test), 125 g ai/ha, scale 0 to 100, 0 is no effect, 100 is complete control, 13 to 15 days, read-out: Plant response rating, Ducksalad",15%
same,Rice plant response rating,rice (Oryza sativa); [16],0
same,plant injury at 250 g/ha,"rice (Oryza sativa); Oryza sativa, 250 g ai/ha, flooded paddy test, visual rating on 0 to 100 scale (0 no effect, 100 complete control) after 13 to 15 days, read-out: Plant response rating, Flood, Rice",15%
same,plant injury at 62 g/ha,"rice (Oryza sativa); Oryza sativa, Flood (flooded paddy test), 62 g ai/ha, scale of 0 to 100 where 0 is no effect and 100 is complete control, 13 to 15 days, read-out: Plant response rating, Rice",0%
same,plant injury at 125 g/ha,"rice (Oryza sativa); Oryza sativa, Flood (flooded paddy test), 125 g ai/ha, scale 0 to 100, 0 is no effect, 100 is complete control, 13 to 15 days, read-out: Plant response rating, Rice",15%
same,pest or weed control at 250 g/ha,"[11]; Cyperus difformis, 360 h, 250 g ai/ha, flooded paddy test, visual rating on 0 to 100 scale (0 no effect, 100 complete control) after 13 to 15 days, read-out: Plant response rating, Flood, Sedge, Umbrella",40%
same,pest or weed control at 62 g/ha,"[11]; Cyperus difformis, 360 h, Flood (flooded paddy test), 62 g ai/ha, scale of 0 to 100 where 0 is no effect and 100 is complete control, 13 to 15 days, read-out: Plant response rating, Sedge, Umbrella",0%
same,pest or weed control at 125 g/ha,"[11]; Cyperus difformis, 360 h, Flood (flooded paddy test), 125 g ai/ha, scale 0 to 100, 0 is no effect, 100 is complete control, 13 to 15 days, read-out: Plant response rating, Sedge, Umbrella",30%
same,"Sedge, Umbrella plant response rating",[11]; [16],0
